Laboratory results taken from PubChem BioAssay AID248 (DTP/NCI, 2004).
Where “and” joins values, the source holds several entries; their conditions need not be identical. Equal entries are not always repeated. Inconclusive results and toxic doses are left out. Cut-off read from the data, not from the text of the source: active = T/C of 150% or more; inactive = T/C below 125%.

System: L1210 leukemia ip in BDF1 mice, survival T/C
Assay: NCI In Vivo Anticancer Drug Screen. Data for tumor model L1210 Leukemia (intraperitoneal) in B6D2F1 (BDF1) mice
Settings: endpoint: mean survival time, higher = longer survival
Outline: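 Mice bearing the transplanted tumor received compound or vehicle. Survival of the treated group was divided by that of the vehicle-treated control group to give the ratio.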

[1] = dose: 100.0 mg/kg/injection, schedule: Q01DX001 (ip), vehicle: saline with Tween-80
[2] = dose: 100.0 mg/kg/injection, schedule: Q01DX009 (ip), vehicle: saline with Tween-80
[3] = dose: 100.0 mg/kg/injection, schedule: Q04DX003 (ip), vehicle: saline with Tween-80
[4] = dose: 200.0 mg/kg/injection, schedule: Q01DX001 (ip), vehicle: saline with Tween-80
[5] = dose: 200.0 mg/kg/injection, schedule: Q01DX009 (ip), vehicle: saline with Tween-80
[6] = dose: 200.0 mg/kg/injection, schedule: Q04DX003 (ip), vehicle: saline with Tween-80
[7] = dose: 400.0 mg/kg/injection, schedule: Q04DX003 (ip), vehicle: saline with Tween-80
[8] = dose: 100.0 mg/kg/injection, schedule: Q01DX001 (ip), vehicle: carboxymethylcellulose (CMC)
[9] = dose: 200.0 mg/kg/injection, schedule: Q01DX001 (ip), vehicle: carboxymethylcellulose (CMC)
[10] = dose: 50.0 mg/kg/injection, schedule: Q04DX003 (ip), vehicle: saline with Tween-80
[11] = dose: 100.0 mg/kg/injection, schedule: Q04DX003 (ip), vehicle: saline

Measured: T/C

O=C(/C=C/c1cccc2ccccc12)c1ccccc1[N+](=O)[O-]
inactive: [1] 96 % of control | [2] 96 % of control and 87 % of control | dose: 100.0 mg/kg/injection, schedule: Q04DX002 (ip), vehicle: saline with Tween-80 88 % of control | [3] 96 % of control | [4] 96 % of control | [5] 89 % of control and 90 % of control | dose: 200.0 mg/kg/injection, schedule: Q04DX002 (ip), vehicle: saline with Tween-80 90 % of control | [6] 90 % of control | dose: 400.0 mg/kg/injection, schedule: Q01DX001 (ip), vehicle: saline with Tween-80 91 % of control | dose: 400.0 mg/kg/injection, schedule: Q01DX009 (ip), vehicle: saline with Tween-80 86 % of control and 90 % of control | dose: 400.0 mg/kg/injection, schedule: Q04DX002 (ip), vehicle: saline with Tween-80 88 % of control and 90 % of control | [7] 91 % of control

COc1cc2c3c(c1)/C(=N\NC(N)=O)CCN3CCC2
inactive: dose: 100.0 mg/kg/injection, schedule: Q04DX003 (ip), vehicle: Klucel (hydroxypropylcellulose) (HPC) 98 % of control | dose: 200.0 mg/kg/injection, schedule: Q04DX003 (ip), vehicle: Klucel (hydroxypropylcellulose) (HPC) 103 % of control | dose: 400.0 mg/kg/injection, schedule: Q04DX003 (ip), vehicle: Klucel (hydroxypropylcellulose) (HPC) 108 % of control

O=C(CCc1ccncc1)c1ccccc1
inactive: dose: 50.0 mg/kg/injection, schedule: Q01DX001 (ip), vehicle: carboxymethylcellulose (CMC) 114 % of control | [8] 102 % of control | [9] 102 % of control | dose: 400.0 mg/kg/injection, schedule: Q01DX001 (ip), vehicle: carboxymethylcellulose (CMC) 102 % of control

COc1ccc(-n2c(=O)c(N=Nc3ccc(Br)cc3)c(O)n(-c3ccccc3Cl)c2=S)cc1
inactive: dose: 37.5 mg/kg/injection, schedule: Q01DX001 (ip), vehicle: Klucel (hydroxypropylcellulose) (HPC) 110 % of control | dose: 75.0 mg/kg/injection, schedule: Q01DX001 (ip), vehicle: Klucel (hydroxypropylcellulose) (HPC) 104 % of control | dose: 150.0 mg/kg/injection, schedule: Q01DX001 (ip), vehicle: Klucel (hydroxypropylcellulose) (HPC) 95 % of control

CCCCCCCC[n+]1ccc(C#N)cc1
inactive: dose: 18.8 mg/kg/injection, schedule: Q04DX003 (ip), vehicle: saline 97 % of control | dose: 37.5 mg/kg/injection, schedule: Q04DX003 (ip), vehicle: saline 100 % of control | dose: 75.0 mg/kg/injection, schedule: Q01DX001 (ip), vehicle: saline 96 % of control | dose: 75.0 mg/kg/injection, schedule: Q04DX003 (ip), vehicle: saline 100 % of control

CCn1c2ccccc2c2cc(C=O)ccc21
inactive: dose: 25.0 mg/kg/injection, schedule: Q01DX009 (ip), vehicle: other 95 % of control | dose: 50.0 mg/kg/injection, schedule: Q01DX009 (ip), vehicle: other 98 % of control and 106 % of control | dose: 100.0 mg/kg/injection, schedule: Q01DX009 (ip), vehicle: other 88 % of control | dose: 200.0 mg/kg/injection, schedule: Q01DX009 (ip), vehicle: other 94 % of control

[N-]=[N+]=Nc1nc(Cl)nc2c1ncn2Cc1ccccc1
inactive: dose: 75.0 mg/kg/injection, schedule: Q01DX001 (ip), vehicle: other 97 % of control

COc1cc(OC)c(OC)cc1/C=C\c1ccc2ccccc2[n+]1C
inactive: dose: 25.0 mg/kg/injection, schedule: Q04DX003 (ip), vehicle: saline with Tween-80 101 % of control | [10] 90 % of control

CCCCOc1ccc(OCCCCCCCCCC[N+](C)(C)C)cc1
inactive: dose: 1.56 mg/kg/injection, schedule: Q04DX002 (ip), vehicle: saline 103 % of control | dose: 3.13 mg/kg/injection, schedule: Q04DX002 (ip), vehicle: saline 96 % of control | dose: 6.25 mg/kg/injection, schedule: Q04DX002 (ip), vehicle: saline 96 % of control | dose: 12.5 mg/kg/injection, schedule: Q04DX002 (ip), vehicle: saline 97 % of control and 122 % of control

Nc1ccc(/C=C/c2ccc(N)cc2S(=O)(=O)O)c(S(=O)(=O)O)c1
inactive: dose: 50.0 mg/kg/injection, schedule: Q01DX001 (ip), vehicle: saline 97 % of control | dose: 100.0 mg/kg/injection, schedule: Q01DX001 (ip), vehicle: saline 94 % of control | dose: 200.0 mg/kg/injection, schedule: Q01DX001 (ip), vehicle: saline 94 % of control | dose: 400.0 mg/kg/injection, schedule: Q01DX001 (ip), vehicle: saline 97 % of control

CC(=O)Nc1ccc(SSSc2ccc(NC(C)=O)cc2)cc1
inactive: dose: 1.56 mg/kg/injection, schedule: Q01DX009 (ip), vehicle: water 100 % of control | dose: 3.12 mg/kg/injection, schedule: Q01DX009 (ip), vehicle: water 92 % of control | dose: 6.25 mg/kg/injection, schedule: Q01DX009 (ip), vehicle: water 96 % of control | dose: 12.5 mg/kg/injection, schedule: Q01DX009 (ip), vehicle: water 91 % of control | dose: 25.0 mg/kg/injection, schedule: Q01DX009 (ip), vehicle: water 94 % of control and 88 % of control | dose: 200.0 mg/kg/injection, schedule: Q01DX009 (ip), vehicle: water 92 % of control

Cn1cnc([N+](=O)[O-])c1[Se]c1ncnc2c1ncn2C1OC(CO)C(O)C1O (stereo not drawn)
inactive: dose: 12.5 mg/kg/injection, schedule: Q01DX005 (ip), vehicle: saline 104 % of control | dose: 25.0 mg/kg/injection, schedule: Q01DX005 (ip), vehicle: saline 98 % of control

CCCCCCCCCC1=NN(c2cccc(S(=O)(=O)N(C)c3ccccc3)c2)C(=O)C1
inactive: [11] 94 % of control | dose: 200.0 mg/kg/injection, schedule: Q04DX003 (ip), vehicle: saline 94 % of control | dose: 400.0 mg/kg/injection, schedule: Q04DX003 (ip), vehicle: saline 91 % of control

N=c1c2ncn(C3CCCC3)c2ncn1O
inactive: dose: 50.0 mg/kg/injection, schedule: Q01DX009 (ip), vehicle: saline with Tween-80 114 % of control | [10] 106 % of control | [1] 98 % of control | [2] 103 % of control | [3] 95 % of control | [4] 98 % of control | [5] 115 % of control | [6] 94 % of control

COc1ccc([N+](=O)[O-])cc1NC(=O)Nc1cccc(F)c1
inactive: dose: 100.0 mg/kg/injection, schedule: Q01DX009 (ip), vehicle: gum acacia 90 % of control | dose: 200.0 mg/kg/injection, schedule: Q01DX009 (ip), vehicle: gum acacia 95 % of control | dose: 400.0 mg/kg/injection, schedule: Q01DX009 (ip), vehicle: gum acacia 90 % of control

C#CCOC(C(=O)OC1CCN(C)CC1)(c1ccccc1)c1ccccc1
inactive: dose: 25.0 mg/kg/injection, schedule: Q04DX003 (ip), vehicle: saline 105 % of control | dose: 50.0 mg/kg/injection, schedule: Q04DX003 (ip), vehicle: saline 105 % of control | [11] 97 % of control and 98 % of control

O=S(=O)(c1ccccc1)C(CCCC(C(O)(c1ccccc1)c1ccccc1)S(=O)(=O)c1ccccc1)C(O)(c1ccccc1)c1ccccc1 (stereo not drawn)
inactive: [3] 98 % of control | [6] 100 % of control | [7] 105 % of control

CCCCCCCCCCCCCCCN(CCCl)CCCl
inactive: [8] 93 % of control | [9] 96 % of control

CN1CCN(c2ncnc3c2ncn3C2OC(CO)C(O)C2O)CC1 (stereo not drawn)
inactive: dose: 100.0 mg/kg/injection, schedule: Q01DX005 (ip), vehicle: water 95 % of control | dose: 200.0 mg/kg/injection, schedule: Q01DX005 (ip), vehicle: water 90 % of control | dose: 400.0 mg/kg/injection, schedule: Q01DX005 (ip), vehicle: water 93 % of control

COCOCP(=O)(OC)OC
inactive: dose: 100.0 mg/kg/injection, schedule: Q01DX001 (ip), vehicle: acetone 102 % of control | dose: 100.0 mg/kg/injection, schedule: Q04DX003 (ip), vehicle: acetone 106 % of control | dose: 200.0 mg/kg/injection, schedule: Q01DX001 (ip), vehicle: acetone 98 % of control | dose: 200.0 mg/kg/injection, schedule: Q04DX003 (ip), vehicle: acetone 98 % of control | dose: 400.0 mg/kg/injection, schedule: Q01DX001 (ip), vehicle: acetone 95 % of control | dose: 400.0 mg/kg/injection, schedule: Q04DX003 (ip), vehicle: acetone 92 % of control

c1ccc(CC[n+]2ccccc2)cc1
inactive: dose: 10.0 mg/kg/injection, schedule: Q01DX001 (ip), vehicle: saline 106 % of control | dose: 20.0 mg/kg/injection, schedule: Q01DX001 (ip), vehicle: saline 94 % of control | dose: 40.0 mg/kg/injection, schedule: Q01DX001 (ip), vehicle: saline 95 % of control
